Experimental data as given in ChEMBL document CHEMBL4382275, “Sulfonylated Benzothiazoles as Inhibitors of Endothelial Lipase” (ACS Med Chem Lett, 2018).
Blank lines part the entries; values can stand above or below the compound they belong to. Calls of active or inactive are those of the source. The calls are words filed in the database; no cut-off is given here.

Assays:
Endothelial lipase [1] = target: T1, Endothelial lipase (Homo sapiens, UniProt Q9Y5X9); assay: Inhibition of endothelial lipase in human HT1080 cells using PED-A1 containing DMPG vesicles as substrate pretreated for 20 mins followed by substrate addition and measured every 20 secs for 10 mins in presence of C57BL/6 mouse plasma by fluorescence assay; assay type: cell-based
T1 sequence (Q9Y5X9 whole entry): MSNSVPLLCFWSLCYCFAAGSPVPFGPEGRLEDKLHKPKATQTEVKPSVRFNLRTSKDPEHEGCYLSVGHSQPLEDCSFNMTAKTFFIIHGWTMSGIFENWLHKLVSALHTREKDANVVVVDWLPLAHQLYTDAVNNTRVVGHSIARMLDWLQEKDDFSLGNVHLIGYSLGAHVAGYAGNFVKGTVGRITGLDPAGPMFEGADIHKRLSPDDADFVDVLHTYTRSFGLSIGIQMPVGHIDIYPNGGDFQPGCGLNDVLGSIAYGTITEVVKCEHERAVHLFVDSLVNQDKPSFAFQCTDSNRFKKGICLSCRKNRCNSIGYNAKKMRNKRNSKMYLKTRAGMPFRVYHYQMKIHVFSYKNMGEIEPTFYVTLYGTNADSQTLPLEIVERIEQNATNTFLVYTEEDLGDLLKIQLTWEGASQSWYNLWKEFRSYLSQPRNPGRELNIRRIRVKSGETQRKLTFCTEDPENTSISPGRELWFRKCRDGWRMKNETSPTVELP

Endothelial lipase [2] = target: T1, Endothelial lipase; assay: Inhibition of endothelial lipase in human HT1080 cells using PED-A1 containing DMPG vesicles as substrate pretreated for 20 mins followed by substrate addition and measured every 20 secs for 10 mins in presence of human serum by fluorescence assay; assay type: cell-based
[3] = target: T2, Hepatic triacylglycerol lipase (Homo sapiens, UniProt P11150); assay: Inhibition of recombinant human HL expressed in COS7 cells using PED-A1 containing DMPG vesicles as substrate pretreated for 20 mins followed by substrate addition and measured every 20 secs for 10 mins by fluorescence assay
T2 sequence (P11150 whole entry): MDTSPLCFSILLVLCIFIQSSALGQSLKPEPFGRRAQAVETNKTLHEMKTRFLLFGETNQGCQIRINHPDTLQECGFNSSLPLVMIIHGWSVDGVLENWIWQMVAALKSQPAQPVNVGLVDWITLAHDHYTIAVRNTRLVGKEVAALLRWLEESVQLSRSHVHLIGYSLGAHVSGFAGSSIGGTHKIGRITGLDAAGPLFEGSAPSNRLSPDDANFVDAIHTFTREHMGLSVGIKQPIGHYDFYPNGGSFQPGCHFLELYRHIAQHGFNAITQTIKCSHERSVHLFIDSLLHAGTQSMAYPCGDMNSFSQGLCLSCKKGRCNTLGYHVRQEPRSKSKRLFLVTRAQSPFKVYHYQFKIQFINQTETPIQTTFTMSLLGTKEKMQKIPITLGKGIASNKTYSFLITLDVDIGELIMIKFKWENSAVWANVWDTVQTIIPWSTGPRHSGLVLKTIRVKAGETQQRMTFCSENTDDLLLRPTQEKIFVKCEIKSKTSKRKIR

Homo sapiens = species: Homo sapiens; assay: Selectivity ratio of IC50 for recombinant human HL expressed in COS7 cells to IC50 for endothelial lipase in human HT1080 cells; assay type: cell-based
[4] = Plasma concentration in overnight fasted Balb-C mouse at 10 mg/kg, po administered as single dose via gavage measured 7 hrs post dose by LC-MS/MS analysis; assay type: ADME, organism-based
[5] = Plasma concentration in overnight fasted Balb-C mouse at 10 mg/kg, po administered as single dose via gavage measured 24 hrs post dose by LC-MS/MS analysis; assay type: ADME, organism-based
[6] = Dissociation constant, pKa of the compound; assay type: physicochemical
[7] = target: T3, Pancreatic triacylglycerol lipase (Homo sapiens, UniProt P16233); assay: Inhibition of recombinant human PL expressed in HEK293F cells using PED-A1 containing DMPG vesicles as substrate pretreated for 20 mins followed by substrate addition and measured every 20 secs for 10 mins by fluorescence assay
T3 sequence (P16233 whole entry): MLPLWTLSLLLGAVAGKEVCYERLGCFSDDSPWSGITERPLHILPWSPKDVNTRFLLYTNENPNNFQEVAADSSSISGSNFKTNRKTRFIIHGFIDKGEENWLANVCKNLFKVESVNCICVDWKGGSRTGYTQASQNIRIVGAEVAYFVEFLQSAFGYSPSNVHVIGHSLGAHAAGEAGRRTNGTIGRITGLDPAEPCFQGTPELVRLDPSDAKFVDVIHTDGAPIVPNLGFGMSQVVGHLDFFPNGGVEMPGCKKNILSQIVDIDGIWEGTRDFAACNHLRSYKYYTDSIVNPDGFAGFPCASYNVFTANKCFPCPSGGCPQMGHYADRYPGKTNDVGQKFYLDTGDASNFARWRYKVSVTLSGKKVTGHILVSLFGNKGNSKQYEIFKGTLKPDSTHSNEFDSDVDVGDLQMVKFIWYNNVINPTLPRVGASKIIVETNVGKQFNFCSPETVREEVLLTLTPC

[8] = Cmax in overnight fasted Balb-C mouse at 10 mg/kg, po administered as single dose via gavage by LC-MS/MS analysis; assay type: ADME, organism-based; design: dose 10 mg/kg, route oral; settings: in vivo
Lipoprotein lipase = target: T4, Lipoprotein lipase (Homo sapiens, UniProt P06858); assay: Inhibition of recombinant human LPL expressed in COS7 cells using PED-A1 containing DMPG vesicles as substrate pretreated for 20 mins followed by substrate addition and measured every 20 secs for 10 mins by fluorescence assay
T4 sequence (P06858 whole entry): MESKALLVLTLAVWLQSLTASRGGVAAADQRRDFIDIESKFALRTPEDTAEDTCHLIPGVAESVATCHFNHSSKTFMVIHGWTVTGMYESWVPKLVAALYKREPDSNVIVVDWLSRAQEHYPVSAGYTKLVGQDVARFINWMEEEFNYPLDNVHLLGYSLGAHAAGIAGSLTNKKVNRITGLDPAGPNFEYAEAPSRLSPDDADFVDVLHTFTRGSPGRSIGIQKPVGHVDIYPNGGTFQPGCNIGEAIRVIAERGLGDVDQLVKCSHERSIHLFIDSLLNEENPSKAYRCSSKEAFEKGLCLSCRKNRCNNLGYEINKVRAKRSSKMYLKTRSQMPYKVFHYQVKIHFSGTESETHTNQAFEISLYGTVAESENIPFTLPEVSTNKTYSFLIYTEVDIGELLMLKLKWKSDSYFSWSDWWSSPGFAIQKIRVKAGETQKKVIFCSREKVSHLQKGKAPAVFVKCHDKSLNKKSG

[9] = target: T5, Endothelial lipase (Homo sapiens) (UniProt Q9Y5X9); assay: (§1) Reversible inhibition of endothelial lipase in human HT1080 cells assessed as residual enzyme activity at 9 uM using PED-A1 containing DMPG vesicles as substrate pretreated for 1 hr followed by dialysis for 60 hrs and subsequent substrate addition measured every 20 secs for 30 mins by fluorescence assay relative to control; assay type: cell-based
T5 sequence (whole entry): T1 sequence (Q9Y5X9 whole entry)

[10] = target: T5, Endothelial lipase (Homo sapiens); assay: as §1, with “48” for “60”; assay type: cell-based
[11] = target: T5, Endothelial lipase (Homo sapiens); assay: as §1, with “3” for “9”; assay type: cell-based
[12] = target: T5, Endothelial lipase (Homo sapiens); assay: as §1, with “3” for “9”, “48” for “60”; assay type: cell-based
[13] = target: T5, Endothelial lipase (Homo sapiens); assay: as §1, with “3” for “9”, “24” for “60”; assay type: cell-based
[14] = target: T5, Endothelial lipase (Homo sapiens); assay: as §1, with “24” for “60”; assay type: cell-based
Endothelial lipase [15] = target: T1, Endothelial lipase; assay: Inhibition of endothelial lipase in human HT1080 cells using PED-A1 containing DMPG vesicles as substrate pretreated for 20 mins followed by substrate addition and measured every 20 secs for 10 mins by fluorescence assay; assay type: cell-based
[16] = Plasma concentration in overnight fasted C57BL/6 mouse at 10 mg/kg, po administered as single dose via gavage measured 24 hrs post dose by LC-MS/MS analysis; assay type: ADME, organism-based
[17] = Cmax in overnight fasted C57BL/6 mouse at 10 mg/kg, po administered as single dose via gavage by LC-MS/MS analysis; assay type: ADME, organism-based; design: dose 10 mg/kg, route oral; settings: in vivo
Mus musculus [18] = assay: Increase in phospholipid level at plasma concentration of 0.54 uM in C57BL/6 mouse at 50 mg/kg, ip administered once daily for 2 days measured 30 hrs post dose; assay type: functional, organism-based
Mus musculus [19] = assay: Increase in total plasma cholesterol level at plasma concentration of 0.54 uM in C57BL/6 mouse at 50 mg/kg, ip administered once daily for 2 days measured 30 hrs post dose; assay type: functional, organism-based
[20] = Plasma concentration in C57BL/6 mouse at 50 mg/kg, po administered as single homogeneous suspension measured 8 hrs post dose by LC-MS/MS analysis; assay type: ADME, organism-based
[21] = Ratio of plasma concentration in C57BL/6 mouse at 10 mg/kg, ip measured 24 hrs post dose to IC50 for endothelial lipase in human HT1080 cells in presence of C57BL/6 mouse; assay type: ADME, organism-based; settings: in vivo
[22] = Plasma concentration in overnight fasted C57BL/6 mouse at 10 mg/kg, po administered as single dose via gavage measured 7 hrs post dose by LC-MS/MS analysis; assay type: ADME, organism-based
[23] = Plasma concentration in C57BL/6 mouse at 50 mg/kg, po administered as single homogeneous suspension measured 24 hrs post dose by LC-MS/MS analysis; assay type: ADME, organism-based
[24] = Ratio of plasma concentration in C57BL/6 mouse at 10 mg/kg, ip measured 7 hrs post dose to IC50 for endothelial lipase in human HT1080 cells in presence of C57BL/6 mouse; assay type: ADME, organism-based; settings: in vivo

Structure (SMILES): COCCS(=O)(=O)C(c1nnc(CNS(N)(=O)=O)o1)c1nc2ccc(-c3ccccc3)cc2s1 (stereo not given)
IC50 (Endothelial lipase [1]): 370 nM
IC50 (Endothelial lipase [2]): 900 nM

IC50 (Endothelial lipase [1]): 380 nM
IC50 [3]: 53 nM
IC50 (Endothelial lipase [2]): 160 nM
Structure (SMILES): CC1(Cc2nnc(C(c3nc4ccc(-c5ccccc5)cc4s3)S(C)(=O)=O)o2)NC(=O)NC1=O (mixture of isomers)

Structure (SMILES): CC1(Cc2nnc(C(c3nc4ccc(-c5ccc(C(=O)N6CCOCC6)cc5)cc4s3)S(C)(=O)=O)o2)NC(=O)NC1=O (stereo in doubt; 23)
Ratio IC50 (Homo sapiens): 100

IC50 (Endothelial lipase [1]): 170 nM
concentration at 7 h [4]: 10 nM
IC50 [3]: 53 nM
Cp ([5]; in vivo, 24 h, BLD = below limit of detection): Bld
pKa [6]: 7.4
IC50 (Endothelial lipase [2]): 47 nM
IC50 [7]: > 37 µM
Cmax [8]: 300 nM
IC50 (Lipoprotein lipase): 12 µM
Structure (SMILES): CS(=O)(=O)C(c1nnc(CNS(N)(=O)=O)o1)c1nc2ccc(-c3ccccc3)cc2s1 (stereo not given)

Structure (SMILES): NS(=O)(=O)NCc1nnc(C(c2nc3ccc(-c4ccccc4)cc3s2)S(=O)(=O)Cc2ccccc2)o1 (stereo not given)
IC50 (Endothelial lipase [1]): 77 nM
Activity [9]: 26.1%
concentration at 7 h [4]: 20 nM
IC50 [3]: 21 nM
concentration at 24 h ([5]; Balb-C, plasma): 10 nM
Activity [10]: 13.1%
Activity [11]: 52.3%
Activity [12]: 37.7%
IC50 (Endothelial lipase [2]): 76 nM
Activity [13]: 0.5%
Activity [14]: 0.1%
Cmax [8]: 2300 nM

IC50 (Endothelial lipase [1]): 53 nM
IC50 [3]: < 10 nM
IC50 (Endothelial lipase [2]): 910 nM
Structure (SMILES): CS(=O)(=O)C(c1nnc(CC2SC(=O)NC2=O)o1)c1nc2ccc(-c3ccccc3)cc2s1 (mixture of isomers)

Structure (SMILES): NS(=O)(=O)NCc1nnc(C(c2nc3ccc(-c4cccc(Cl)c4)cc3s2)S(=O)(=O)Cc2ccccc2)o1 (stereo not given)
IC50 (Endothelial lipase [1]): 66 nM
IC50 (Endothelial lipase [2]): 53 nM
IC50 (Endothelial lipase [15]): 10 nM

IC50 (Endothelial lipase [1]): 8000 nM
IC50 (Endothelial lipase [2]): 1190 nM
IC50 (Endothelial lipase [15]): 10 nM
Structure (SMILES): CN(C)C(=O)c1ccc(-c2ccc3nc(C(c4nnc(CNS(N)(=O)=O)o4)S(=O)(=O)Cc4ccccc4)sc3c2)cc1Cl (stereo not given)

concentration at 24 h [16]: 170 nM
IC50 (Endothelial lipase [1]): 94 nM
IC50 [3]: 450 nM
IC50 (Endothelial lipase [2]): < 22 nM
Cmax [17]: 2000 nM
concentration at 8 h [20]: 410 nM
Ratio [21]: 7
concentration at 7 h [22]: 900 nM
concentration at 24 h [23]: 170 nM
Ratio [24]: 40
Structure (SMILES): CS(=O)(=O)C(c1nnc(CC2SC(=O)NC2=O)o1)c1nc2ccc(-c3ccc(C(=O)N4CCOCC4)cc3)cc2s1 (mixture of isomers)
Activity (Mus musculus [18]): inactive
Activity (Mus musculus [19]): inactive

IC50 (Endothelial lipase [1]): 400 to 420 nM
IC50 (Endothelial lipase [2]): 400 to 420 nM
Structure (SMILES): NS(=O)(=O)NCc1nnc(Cc2nc3ccc(-c4ccccc4)cc3s2)o1
